Experimental data reported in ChEMBL document CHEMBL1201862, “PubChem BioAssay data set” (2004).
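How tested: cells in 96-well plates exposed to compound for 48 hours at five concentrations. GI50: concentration for 50% inhibition of growth.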 Active and inactive are the calls of the source. Cut-off read from the data, not from the text of the source: active = GI50 up to about 1.1 µM and inactive = higher.

Legend:
Assay in all cases: DTP human tumour cell line panel, 48 h
HT-29 = system: HT-29
NCI-H23 = system: NCI-H23
KM12 = system: KM12
OVCAR-5 = system: OVCAR-5
SK-OV-3 = system: SK-OV-3
SK-MEL-28 = system: SK-MEL-28
SNB-19 = system: SNB-19
UO-31 = system: UO-31
RXF 393 = system: RXF 393
U-251 = system: U-251
EKVX = system: EKVX
NCI-H522 = system: NCI-H522
MOLT-4 = system: MOLT-4
DMS-273 = system: DMS-273
K562 = system: K562
CCRF-CEM = system: CCRF-CEM
SF-268 = system: SF-268
HOP-62 = system: HOP-62
NCI-H226 = system: NCI-H226
A498 = system: A498
UACC-62 = system: UACC-62
HOP-92 = system: HOP-92
TK-10 = system: TK-10
SNB-78 = system: SNB-78
HL-60 = system: HL-60
A549 = system: A549
NCI-H460 = system: NCI-H460
M14 = system: M14
IGROV-1 = system: IGROV-1
SR = system: SR
SW-620 = system: SW-620
HCT-116 = system: HCT-116
MDA-N = system: MDA-N
SN12C = system: SN12C
MDA-MB-435 = system: MDA-MB-435
DU-145 = system: DU-145
T47D = system: T47D
786-0 = system: 786-0
HCC 2998 = system: HCC 2998
NCI/ADR-RES = system: NCI/ADR-RES
BT-549 = system: BT-549
MDA-MB-231 = system: MDA-MB-231
UACC-257 = system: UACC-257
SK-MEL-5 = system: SK-MEL-5
LOX IMVI = system: LOX IMVI
CAKI-1 = system: CAKI-1
SNB-75 = system: SNB-75
Malme-3M = system: Malme-3M
OVCAR-4 = system: OVCAR-4
MCF7 = system: MCF7
SF-295 = system: SF-295
SK-MEL-2 = system: SK-MEL-2
SF-539 = system: SF-539
COLO 205 = system: COLO 205
PC-3 = system: PC-3
HCT-15 = system: HCT-15
RPMI-8226 = system: RPMI-8226
OVCAR-8 = system: OVCAR-8
OVCAR-3 = system: OVCAR-3
ACHN = system: ACHN
Hs-578T = system: Hs-578T
DMS-114 = system: DMS-114
M19-MEL = system: M19-MEL

## COC(=O)CN1CCS/C1=N/C#N
HT-29
  GI50: > 100 µM (inactive)
NCI-H23
  GI50: > 100 µM (inactive)
KM12
  GI50: > 100 µM (inactive)
OVCAR-5
  GI50: > 100 µM (inactive)
SK-OV-3
  GI50: > 100 µM (inactive)
SK-MEL-28
  GI50: > 100 µM (inactive)
SNB-19
  GI50: > 100 µM (inactive)
UO-31
  GI50: > 100 µM (inactive)
RXF 393
  GI50: > 100 µM (inactive)
U-251
  GI50: > 100 µM (inactive)
EKVX
  GI50: > 100 µM (inactive)
NCI-H522
  GI50: > 100 µM (inactive)
MOLT-4
  GI50: > 100 µM (inactive)
DMS-273
  GI50: > 100 µM (inactive)
K562
  GI50: > 100 µM (inactive)
CCRF-CEM
  GI50: > 100 µM (inactive)
SF-268
  GI50: > 100 µM (inactive)
HOP-62
  GI50: > 100 µM (inactive)
NCI-H226
  GI50: > 100 µM (inactive)
A498
  GI50: > 100 µM (inactive)
UACC-62
  GI50: > 100 µM (inactive)
HOP-92
  GI50: > 100 µM (inactive)
TK-10
  GI50: > 100 µM (inactive)
SNB-78
  GI50: > 100 µM (inactive)
HL-60
  GI50: > 100 µM (inactive)
A549
  GI50: > 100 µM (inactive)
NCI-H460
  GI50: > 100 µM (inactive)
M14
  GI50: > 100 µM (inactive)
IGROV-1
  GI50: > 100 µM (inactive)
SR
  GI50: > 100 µM (inactive)

## C/C=C/C(O)P(=O)(OC)OC (stereo not given)
HT-29
  GI50: 0.33 µM (active)
NCI-H23
  GI50: 0.307 µM (active)
SW-620
  GI50: 0.277 µM (active)
KM12
  GI50: 0.278 µM (active)
OVCAR-5
  GI50: 0.284 µM (active)
HCT-116
  GI50: 0.254 µM (active)
MDA-N
  GI50: 0.217 µM (active)
SN12C
  GI50: 0.4 µM (active)
SK-OV-3
  GI50: 1.03 µM (active)
MDA-MB-435
  GI50: 0.267 µM (active)
SK-MEL-28
  GI50: 0.32 µM (active)
SNB-19
  GI50: 0.436 µM (active)
UO-31
  GI50: 0.164 µM (active)
DU-145
  GI50: 0.34 µM (active)
RXF 393
  GI50: 0.215 µM (active)
T47D
  GI50: 0.334 µM (active)
U-251
  GI50: 0.307 µM (active)
786-0
  GI50: 0.173 µM (active)
HCC 2998
  GI50: 0.27 µM (active)
NCI/ADR-RES
  GI50: 0.473 µM (active)
BT-549
  GI50: 0.594 µM (active)
MDA-MB-231
  GI50: 0.428 µM (active)
UACC-257
  GI50: 0.256 µM (active)
EKVX
  GI50: 0.308 µM (active)
SK-MEL-5
  GI50: 0.196 µM (active)
LOX IMVI
  GI50: 0.187 µM (active)
CAKI-1
  GI50: 0.589 µM (active)
NCI-H522
  GI50: 0.214 µM (active)
MOLT-4
  GI50: 0.3 µM (active)
K562
  GI50: 0.318 µM (active)
SNB-75
  GI50: 0.312 µM (active)
Malme-3M
  GI50: 0.296 µM (active)
OVCAR-4
  GI50: 0.335 µM (active)
MCF7
  GI50: 0.269 µM (active)
CCRF-CEM
  GI50: 0.227 µM (active)
SF-268
  GI50: 0.263 µM (active)
HOP-62
  GI50: 0.628 µM (active)
NCI-H226
  GI50: 0.332 µM (active)
SF-295
  GI50: 0.366 µM (active)
A498
  GI50: 0.316 µM (active)
SK-MEL-2
  GI50: 0.324 µM (active)
SF-539
  GI50: 0.279 µM (active)
UACC-62
  GI50: 0.27 µM (active)
HOP-92
  GI50: < 0.0385 µM (active)
TK-10
  GI50: 0.366 µM (active)
COLO 205
  GI50: 0.184 µM (active)
PC-3
  GI50: 0.407 µM (active)
HCT-15
  GI50: 0.309 µM
RPMI-8226
  GI50: 0.162 µM (active)
OVCAR-8
  GI50: 0.451 µM (active)
OVCAR-3
  GI50: 0.255 µM (active)
HL-60
  GI50: 0.256 µM (active)
A549
  GI50: 0.274 µM (active)
ACHN
  GI50: 0.344 µM (active)
NCI-H460
  GI50: 0.272 µM (active)
M14
  GI50: 0.207 µM (active)
IGROV-1
  GI50: 0.275 µM (active)
SR
  GI50: 0.257 µM (active)
Hs-578T
  GI50: 0.213 µM (active)

## COc1cc(O)c2c(c1C)C(C)(O)c1c(C)coc1C2=O (stereo not given)
HT-29
  GI50: > 100 µM (inactive)
NCI-H23
  GI50: > 100 µM (inactive)
KM12
  GI50: > 100 µM (inactive)
OVCAR-5
  GI50: > 100 µM (inactive)
HCT-116
  GI50: > 100 µM (inactive)
DMS-114
  GI50: > 100 µM (inactive)
SK-OV-3
  GI50: > 100 µM (inactive)
SK-MEL-28
  GI50: > 100 µM (inactive)
SNB-19
  GI50: > 100 µM (inactive)
UO-31
  GI50: > 100 µM (inactive)
RXF 393
  GI50: > 100 µM (inactive)
U-251
  GI50: > 100 µM (inactive)
UACC-257
  GI50: > 100 µM (inactive)
EKVX
  GI50: > 100 µM (inactive)
HOP-62
  GI50: > 100 µM (inactive)
NCI-H226
  GI50: 99.8 µM (inactive)
SF-295
  GI50: > 100 µM (inactive)
A498
  GI50: 89.7 µM (inactive)
UACC-62
  GI50: 74.1 µM (inactive)
HOP-92
  GI50: > 100 µM (inactive)
TK-10
  GI50: > 100 µM (inactive)
M19-MEL
  GI50: > 100 µM (inactive)
SNB-78
  GI50: > 100 µM (inactive)
OVCAR-8
  GI50: > 100 µM (inactive)
HL-60
  GI50: 57.7 µM (inactive)
A549
  GI50: > 100 µM (inactive)
ACHN
  GI50: > 100 µM (inactive)
NCI-H460
  GI50: > 100 µM (inactive)
M14
  GI50: > 100 µM (inactive)
IGROV-1
  GI50: > 100 µM (inactive)
SR
  GI50: > 100 µM (inactive)
